# Results from paper PMC10449621, “Engineering cellular communication between light-activated synthetic cells and bacteria” (Nature Chemical Biology, 2023).
# Several values for one entry are separate records, joined by “and”; a condition that tells them apart may be missing. Equal values may be shown once. Entries after “also recorded” stand apart in the source; their conditions may differ.
# Key:
# [1] = test system: BjaRKO receiver cells (pSB1A3–bjaRKO–gfp); test: BjaR receiver cell AHSL dose-response (gfp reporter, plate reader); format: cell-based, E. coli XL10-Gold
# From the text: (§1) Next, we set out to establish a unidirectional communication pathway by reconstituting the BjaI and BjaR QS machinery, separately, within synthetic cells and E. coli, respectively. As a starting point, IV-HSL-responsive receiver cells were created by transforming E. coli XL10-Gold cells with a reporter plasmid, pSB1A3–bjaR–gfp[28]. This plasmid contained a bjaR gene under the control of a constitutively active J23100 promoter and a gfp gene under the control of a pBjaR promoter. The pBjaR promoter was formed by substituting the lux-box of the pLux promoter with the BjaR-binding site (Supplementary Fig. 10). […] Although this reporter plasmid had been characterized previously, gfp expression was initiated with C4-HSL rather than the cognate ligand, IV-HSL. Thus, we first evaluated the dose–response relationship between synthetic IV-HSL (synthesis described in Methods) and GFP production by BjaR receiver cells. The cells were grown in M9 minimal media to an optical density at 600 nm (OD600) = 0.05, then transferred to a 96-well plate containing IV-HSL and incubated at 37 °C, 800 r.p.m., for 4 h. […] To elucidate the root cause of the high background fluorescence, a BjaRKO variant of the reporter plasmid was constructed. […] Therefore, the high OFF-state was attributed to BjaR-mediated transcription activation in the absence of IV-HSL, rather than host transcription factors recognizing the pBjaR promoter, or transcription factor independent gfp expression.
# (§2) The BjaR reporter plasmids were retransformed into E. coli XL10-Gold cells for each experiment. A single colony was used to inoculate 5 ml LB + Amp media and incubated at 37 °C, 225 r.p.m. overnight. Overnight cultures were diluted 1/250 or 1/500 in 5 ml M9 minimal media + Amp and incubated at 37 °C, 225 r.p.m. for 3 h and 45 min (until OD600 = ~0.075). Cultures were diluted down to OD600 = 0.05 with M9 minimal media + Amp, and 200 µl was added to wells of a 96-well plate containing 1 µl IV-HSL dissolved in DMSO or 1 µl BjaI CFPS reactions (IV-HSL concentrations obtained from serial dilution from 63.2 µM to 632 pM; final DMSO concentration = 0.5%). Cells were incubated at 37 °C, 800 r.p.m., in a thermomixer with a heated lid for 4 h. Fluorescence and OD600 were measured in a Tecan M1000 infinite plate reader (excitation, 488 nm; emission, 510 nm; bandwidth, 5 nm; gain, 101 and z position, 21,311 µm). The dose–response curves were fitted to the function indicated by Eq. (1), where a = maximal fluorescence output, b = basal fluorescence output, X = concentration of AHSL, GFP = fluorescence at the given condition, EC50 = AHSL at 50% maximal fluorescence output and h = hill coefficient. EC50 and h were derived using the nonlinear regression model based on Eq. (1), in MATLAB. A summary of the dose–response data is available in Supplementary Table 1.1 GFP=b+a−b/1+10^logEC50−X×h
# [2] = test system: BjaRWT (B0034|ATG) receiver cells (pSB1A3–bjaR–gfp); test: as above; format: cell-based, E. coli XL10-Gold
# From the text: as §1, §2
compound,measurement,setting,value
"CC(C)CC(=O)N[C@H]1CCOC1=O [IV-HSL, N-isovaleryl-L-homoserine lactone]",gfp expression in presence of IV-HSL,[1]; BjaR knocked out,completely ablated gfp expression; also recorded: minimal gfp expression
same,GFP,[1]; Log([ASHL]) -6.5,184 and 176 and 173
same,Mean normalised fluorescence,[1]; Log([ASHL]) -6.5,361.621
same,Normalised fluorescence,[1]; Log([ASHL]) -6.5,365.437 and 317.314 and 402.112
same,GFP,[1]; Log([ASHL]) -7,173 and 168 and 165
same,Mean normalised fluorescence,[1]; Log([ASHL]) -7,321.731
same,Normalised fluorescence,[1]; Log([ASHL]) -7,319.68 and 293.754 and 351.759
same,GFP,[1]; Log([ASHL]) -7.5,177 and 169 and 166
same,Mean normalised fluorescence,[1]; Log([ASHL]) -7.5,323.42
same,Normalised fluorescence,[1]; Log([ASHL]) -7.5,331.126 and 287.856 and 351.279
same,GFP,[1]; Log([ASHL]) -8,168 and 166 and 175
same,Mean normalised fluorescence,[1]; Log([ASHL]) -8,329.861
same,Normalised fluorescence,[1]; Log([ASHL]) -8,292.758 and 367.412 and 329.412
same,GFP,[1]; Log([ASHL]) -8.5,168 and 165 and 177
same,Mean normalised fluorescence,[1]; Log([ASHL]) -8.5,326.491
same,Normalised fluorescence,[1]; Log([ASHL]) -8.5,291.054 and 362.261 and 326.158
same,GFP,[1]; Log([ASHL]) -9,165 and 164 and 177
same,Mean normalised fluorescence,[1]; Log([ASHL]) -9,335.395
same,Normalised fluorescence,[1]; Log([ASHL]) -9,295.725 and 362.027 and 348.432
same,GFP,[1]; Log([ASHL]) -9.5,164 and 162 and 172
same,Mean normalised fluorescence,[1]; Log([ASHL]) -9.5,325.095
same,Normalised fluorescence,[1]; Log([ASHL]) -9.5,293.548 and 346.048 and 335.689
same,GFP,[1]; Log([ASHL]) -10,163 and 162 and 171
same,Mean normalised fluorescence,[1]; Log([ASHL]) -10,332.521
same,Normalised fluorescence,[1]; Log([ASHL]) -10,290.698 and 371.151 and 335.714
same,GFP,[1]; Log([ASHL]) -10.5,166 and 164 and 173
same,Mean normalised fluorescence,[1]; Log([ASHL]) -10.5,338.795
same,Normalised fluorescence,[1]; Log([ASHL]) -10.5,301.85 and 369.458 and 345.075
same,GFP,[1]; Log([ASHL]) -11,163 and 161 and 171
same,Mean normalised fluorescence,[1]; Log([ASHL]) -11,330.063
same,Normalised fluorescence,[1]; Log([ASHL]) -11,296.053 and 361.746 and 332.39
same,GFP,[1]; Log([ASHL]) -11.5,165 and 174 and 162
same,Mean normalised fluorescence,[1]; Log([ASHL]) -11.5,344.578
same,Normalised fluorescence,[1]; Log([ASHL]) -11.5,307.076 and 352.984 and 373.673
same,IV-HSL concentration at which gfp expression saturated,"[2]; 4 h, 37 °C",~ 100 nM
same,lowest IV-HSL concentration giving increased gfp expression,"[2]; 4 h, 37 °C",100 pM
same,EC50,"[2]; Escherichia coli, IV-HSL-activated gfp expression, M9 minimal media, 37 °C, 4 h",1 ± 0.11 nM
same,GFP,[2]; Log([ASHL]) -6.5,5520 and 5263 and 4853
same,Mean normalised fluorescence,[2]; Log([ASHL]) -6.5,51540.5
same,Normalised fluorescence,[2]; Log([ASHL]) -6.5,52896 and 49381.5 and 52343.9
same,GFP,[2]; Log([ASHL]) -7,4847 and 5318 and 4599
same,Mean normalised fluorescence,[2]; Log([ASHL]) -7,48761.2
same,Normalised fluorescence,[2]; Log([ASHL]) -7,46176.2 and 48745.4 and 51362.1
same,GFP,[2]; Log([ASHL]) -7.5,4806 and 4967 and 4256
same,Mean normalised fluorescence,[2]; Log([ASHL]) -7.5,50366.9
same,Normalised fluorescence,[2]; Log([ASHL]) -7.5,49622.2 and 48407.5 and 53071.1
same,GFP,[2]; Log([ASHL]) -8,4739 and 4412 and 4755
same,Mean normalised fluorescence,[2]; Log([ASHL]) -8,51222.6
same,Normalised fluorescence,[2]; Log([ASHL]) -8,48553.6 and 53423.6 and 51690.6
same,GFP,[2]; Log([ASHL]) -8.5,4235 and 3971 and 4223
same,Mean normalised fluorescence,[2]; Log([ASHL]) -8.5,46308.3
same,Normalised fluorescence,[2]; Log([ASHL]) -8.5,43174.3 and 50090 and 45660.8
same,GFP,[2]; Log([ASHL]) -9,3046 and 2749 and 2957
same,Mean normalised fluorescence,[2]; Log([ASHL]) -9,32989.1
same,Normalised fluorescence,[2]; Log([ASHL]) -9,31098.3 and 35762 and 32107
same,GFP,[2]; Log([ASHL]) -9.5,2089 and 1773 and 1816
same,Mean normalised fluorescence,[2]; Log([ASHL]) -9.5,20544.4
same,Normalised fluorescence,[2]; Log([ASHL]) -9.5,19459.5 and 23021.7 and 19152
same,GFP,[2]; Log([ASHL]) -10,1495 and 1301 and 1477
same,Mean normalised fluorescence,[2]; Log([ASHL]) -10,15546.1
same,Normalised fluorescence,[2]; Log([ASHL]) -10,14827.9 and 16425.7 and 15384.6
same,GFP,[2]; Log([ASHL]) -10.5,1424 and 1254 and 1414
same,Mean normalised fluorescence,[2]; Log([ASHL]) -10.5,15128.3
same,Normalised fluorescence,[2]; Log([ASHL]) -10.5,14176.3 and 15945.9 and 15262.6
same,GFP,[2]; Log([ASHL]) -11,1414 and 1258 and 1391
same,Mean normalised fluorescence,[2]; Log([ASHL]) -11,15383.1
same,Normalised fluorescence,[2]; Log([ASHL]) -11,14419.4 and 15744.7 and 15985.4
same,GFP,[2]; Log([ASHL]) -11.5,1447 and 1104 and 1274
same,Mean normalised fluorescence,[2]; Log([ASHL]) -11.5,15262.1
same,Normalised fluorescence,[2]; Log([ASHL]) -11.5,15049.3 and 14629.6 and 16107.4
